# Measurements as given in patent publication US20120009280A1, “METHOD OF REDUCING THE RATE OF DEGRADATION OF A BIOLOGICAL MATERIAL” (Bio-Energy Ingredients Limited, priority 2009, published 2012).
# Assays:
# total micro-organism [1] = experiment: Total microbial (plate) count of spent brewer's / wet distiller's grains stored at ambient temperature; format: cell-based; parameters: total microbial count: unit: cfu/gram
# Text: Samples of spent brewer's grains were drawn from the discharge line of a brewery in South Africa. The samples, packed in dry ice in a cold box, were transported over a distance of approximately 40 kilometres to a laboratory. At the laboratory, the samples were thoroughly mixed and initially split into a first portion (Portion 1) and a second portion (Portion 2). The second portion was about twice the size of the first. Portion 1 was left untreated. Material produced from Portion 1 and Portion 2 is designated below using the code “AR” (as received).
# Portion 2 was placed on a clean, standard, laboratory screen deck with 1.4 mm apertures supported from below. As much water as possible was manually squeezed out with a clean flat plastic disc and the sample was then manually remixed after the squeezing. The squeezed material was then split into a third portion (Portion 3) and a fourth portion (Portion 4) of approximately the same size. Material produced from Portion 3 and Portion 4 is designated below using the code “SO” (squeezed).
# Portion 4 was added to a high speed kitchen food-shredder and shredded for about two minutes. The shredded material was then returned to the 1.4 mm aperture screen and squeezed again, as described above, and manually remixed again after the second squeezing to produce a shredded and squeezed portion (Portion 5). Material produced from Portion 5 is designated below using the code “SH” (shredded).
# (§1) Samples of Portion 1 (“AR”), Portion 3 (“SO”) and Portion 5 (“SH”) were then delivered to a microbiological testing facility about 15 kilometres from the treatment laboratory. Each was tested for initial total microbial, yeast and mould counts, respectively.
# (§2) Separate untreated samples were similarly stored under insect-proof screens at ambient temperature for seven days (as shown in Tables 1 and 2). During the trial period the ambient temperature ranged from 11 to 33 degrees C.
# After exposure to the environment for seven days, all of the samples were tested at a South African National Accreditation System (SANAS) approved microbiological testing facility. Each was tested for total micro-organism, yeast and mould counts to determine the affect of the various treatments.
# Samples of spent brewer's grains were drawn from the discharge line of a brewery in South Africa.
# (§3) At the laboratory, the samples were thoroughly mixed and initially split into a first portion (Portion 1) and a second portion (Portion 2). Portion 1 was left untreated. A sample of Portion 1, was delivered immediately to a microbiological testing facility about 15 kilometres away from the treatment laboratory and was tested for initial total microbial, yeast and mould counts, respectively.
# Samples from Portion 2 were subjected to treatment with varying amounts of a powdered, commercially-available calcium oxide containing approximately 94% calcium oxide (CaO) as shown in Table 32. The treatments varied from 2.5 to 10% (w/w) calcium oxide addition. The samples were stored in batches (according to the calcium oxide treatment) under insect-proof screens at ambient temperature for fifty six days. […] During the trial period the ambient temperature ranged from 10 to 30 degrees C. As this period was the southern hemisphere spring/early summer, the humidity as well as ambient temperatures varied widely.
# (§4) Samples from each treatment were drawn every seven days. No further calcium oxide treatment or agitation took place after the initial mix. In each case the entire sample was isolated and delivered to the microbiological testing facility.
# (§5) In this trial the same source of wet distiller's grains (again with now partial water removal prior to treatment) was treated.
# as §5
# yeast = experiment: Yeast count of spent brewer's / wet distiller's grains stored at ambient temperature; format: cell-based
# mould = experiment: Mould count of spent brewer's / wet distiller's grains stored at ambient temperature; format: cell-based
# Method: as §1, §2
# (§6) The free moisture content on the initial spent brewer's grains was determined to be 78.1% m/m. After exposure to the environment for seven days, all of the samples were tested at a South African National Accreditation System (SANAS) approved microbiological testing facility. Each was tested for total micro-organism, yeast and mould counts to determine the affect of the various treatments. A similar procedure to that described in K. A. Rosentrater et al, Food Bioprocess Technol (2008) was used for the microbiological evaluation.
# as §3, with “respectively. No water removal prior to treatment was done in this experiment as was the case in Example 8 wherein a similar wet material was partially dewatered by pressing and the residue treated with 10% (w/w/) calcium oxide.” for “respectively.”
# Samples from Portion 2 were subjected to treatment with varying amounts of a powdered, commercially-available calcium oxide containing approximately 94% calcium oxide (CaO) as shown in Table 32. […] The samples were stored in batches (according to the calcium oxide treatment) under insect-proof screens at ambient temperature for fifty six days. Separate untreated samples were similarly stored under insect-proof screens at ambient temperature for a total of 56 days. During the trial period the ambient temperature ranged from 10 to 30 degrees C. As this period was the southern hemisphere spring/early summer, the humidity as well as ambient temperatures varied widely.
# as §6, with “79.4%” for “78.1%”
# as §4
# The calcium oxide treatment trial described in Example 9 wherein wet distiller's grains were treated with 2.5%, 5% and 10.0% calcium oxide, respectively, versus untreated material was repeated using lower doses of calcium oxide. In this trial the same source of wet distiller's grains (again with now partial water removal prior to treatment) was treated. Also, the same protocol as described in Example 9 was applied, but at lower doses of calcium oxide i.e. 0.5%, 1.0%, 1.5%, 2.0% and 2.5%, respectively, versus untreated material.
# In this trial the same source of wet distiller's grains (again with now partial water removal prior to treatment) was treated. Also, the same protocol as described in Example 9 was applied.
# [2] = pH of suspensions of grain samples in distilled water or PBS; conditions: 1% (w/w) in distilled water
# Method: The untreated sample (A) was compared visually against the corresponding quicklime-treated sample (B).
# On Day 7, 10 g amounts of each sample were suspended in either 90 ml PBS or 90 ml sterile distilled water and shaken for 10 minutes. The pH of each suspension was then measured and compared.
# On Day 9, 10 g of each sample was suspended in 90 ml PBS and shaken for 10 minutes. The pH was measured.
# total micro-organism [3] = experiment: Total microbial (plate) count of spent brewer's / wet distiller's grains stored at ambient temperature; format: cell-based; conditions: dose 10% w/w; distiller's grains not de-watered, Examples 16-18
# [4] = dose 15% w/w, distiller's grains not de-watered, Examples 16-18
molecule,measurement,setting,value
[Ca+2].[O-]CC(O)CO.[O-]CC(O)CO [Ca-DGO powder],Total plate count,"total micro-organism [1]; dose 15% (w/w), week 0",40 cfu/gram
same,Total plate count,"total micro-organism [1]; dose 15% (w/w), week 1",80 cfu/gram
same,Total plate count,"total micro-organism [1]; dose 15% (w/w), week 3",100 cfu/gram
same,Total plate count,"total micro-organism [1]; dose 15% (w/w), week 4",10 cfu/gram
same,Total plate count,"total micro-organism [1]; dose 15% (w/w), week 6",50 cfu/gram
same,Total plate count,"total micro-organism [1]; dose 15% (w/w), week 7",40 cfu/gram
same,Total plate count,"total micro-organism [1]; dose 15% (w/w), week 8",70 cfu/gram
same,Total plate count,"total micro-organism [1]; dose 15% (w/w), week 9",10 cfu/gram
same,Yeast Count,"yeast; dose 15% (w/w), week 0",<10 cfu/gram
same,Yeast Count,"yeast; dose 15% (w/w), week 1",<10 cfu/gram
same,Yeast Count,"yeast; dose 15% (w/w), week 2",<10 cfu/gram
same,Yeast Count,"yeast; dose 15% (w/w), week 3",<10 cfu/gram
same,Yeast Count,"yeast; dose 15% (w/w), week 4",<10 cfu/gram
same,Yeast Count,"yeast; dose 15% (w/w), week 5",<10 cfu/gram
same,Yeast Count,"yeast; dose 15% (w/w), week 6",<10 cfu/gram
same,Yeast Count,"yeast; dose 15% (w/w), week 7",<10 cfu/gram
same,Yeast Count,"yeast; dose 15% (w/w), week 8",<10 cfu/gram
same,Yeast Count,"yeast; dose 15% (w/w), week 9",<10 cfu/gram
same,Mould Count,"mould; dose 15% (w/w), week 0",<10 cfu/gram
same,Mould Count,"mould; dose 15% (w/w), week 1",<10 cfu/gram
same,Mould Count,"mould; dose 15% (w/w), week 2",<10 cfu/gram
same,Mould Count,"mould; dose 15% (w/w), week 3",<10 cfu/gram
same,Mould Count,"mould; dose 15% (w/w), week 4",<10 cfu/gram
same,Mould Count,"mould; dose 15% (w/w), week 5",<10 cfu/gram
same,Mould Count,"mould; dose 15% (w/w), week 6",<10 cfu/gram
same,Mould Count,"mould; dose 15% (w/w), week 7",<10 cfu/gram
same,Mould Count,"mould; dose 15% (w/w), week 8",<10 cfu/gram
same,Mould Count,"mould; dose 15% (w/w), week 9",350 cfu/gram
same,pH,"[2]; dose 15% (w/w), week 0",11.50
same,pH,"[2]; dose 15% (w/w), week 1",11.73
same,pH,"[2]; dose 15% (w/w), week 2",7.33
same,pH,"[2]; dose 15% (w/w), week 3",7.38
same,pH,"[2]; dose 15% (w/w), week 4",8.83
same,pH,"[2]; dose 15% (w/w), week 6",9.18
same,pH,"[2]; dose 15% (w/w), week 8",9.14
same,pH,"[2]; dose 15% (w/w), week 9",9.07
Ca(OH2,Total plate count,"total micro-organism [1]; 6.6% (w/w) powder, week 1",420 cfu/gram
same,Total plate count,"total micro-organism [1]; 6.6% (w/w) powder, week 2",140 cfu/gram
same,Total plate count,"total micro-organism [1]; 6.6% (w/w) powder, week 3",640 cfu/gram
same,Total plate count,"total micro-organism [1]; 6.6% (w/w) powder, week 4",170 cfu/gram
same,Total plate count,"total micro-organism [1]; 6.6% (w/w) powder, week 5",20 cfu/gram
same,Yeast Count,"yeast; 6.6% (w/w) powder, week 1",10 cfu/gram
same,Yeast Count,"yeast; 6.6% (w/w) powder, week 2",10 cfu/gram
same,Yeast Count,"yeast; 6.6% (w/w) powder, week 3",10 cfu/gram
same,Yeast Count,"yeast; 6.6% (w/w) powder, week 4",120 cfu/gram
same,Yeast Count,"yeast; 6.6% (w/w) powder, week 5",10 cfu/gram
same,Mould Count,"mould; 6.6% (w/w) powder, week 1",10 cfu/gram
same,Mould Count,"mould; 6.6% (w/w) powder, week 2",10 cfu/gram
same,Mould Count,"mould; 6.6% (w/w) powder, week 3",10 cfu/gram
same,Mould Count,"mould; 6.6% (w/w) powder, week 4",10 cfu/gram
same,Mould Count,"mould; 6.6% (w/w) powder, week 5",10 cfu/gram
same,pH,"[2]; 6.6% (w/w) powder, week 1",11.55
same,pH,"[2]; 6.6% (w/w) powder, week 2",11.26
same,pH,"[2]; 6.6% (w/w) powder, week 3",12.10
same,pH,"[2]; 6.6% (w/w) powder, week 4",8.23
same,pH,"[2]; 6.6% (w/w) powder, week 5",11.47
"[Ca+2].[O-]CC(O)CO.[O-]CC(O)CO [calcium diglyceroxide granules, calcium diglyceroxide]",total microbial count,"total micro-organism [1]; granules 10% (w/w), 2 week time point",below 10
same,total microbial count,"total micro-organism [1]; granules 10% (w/w), 3 week time point",540
same,total microbial count,"total micro-organism [1]; granules 10% (w/w), 4 week time point",60
same,total microbial count,"total micro-organism [1]; granules 10% (w/w), 5 week time point",650
same,effective period,"total micro-organism [1]; granules 10% (w/w), Example 18",~7 weeks
[Ca+2].[O-]CC(O)CO.[O-]CC(O)CO [Ca-DGO (p)],preservation time with total microbial counts <100 cfu/g,total micro-organism [3],≧2 weeks
same,preservation time with total microbial counts <1000 cfu/g,total micro-organism [3],≧3 weeks
same,preservation time with total microbial counts <10 cfu/g,total micro-organism [1]; [4],≧9 weeks
same,preservation time with total microbial counts <100 cfu/g,total micro-organism [1]; [4],≧9 weeks
same,preservation time with total microbial counts <1000 cfu/g,total micro-organism [1]; [4],≧9 weeks
[Ca+2].[O-]CC(O)CO.[O-]CC(O)CO [Ca-DGO powder + granules (1:1)],Total plate count,"total micro-organism [1]; dose 15% (w/w), week 0",540 cfu/gram
same,Total plate count,"total micro-organism [1]; dose 15% (w/w), week 1",50 cfu/gram
same,Total plate count,"total micro-organism [1]; dose 15% (w/w), week 2",710 cfu/gram
same,Total plate count,"total micro-organism [1]; dose 15% (w/w), week 3",70 cfu/gram
same,Total plate count,"total micro-organism [1]; dose 15% (w/w), week 4",<10 cfu/gram
same,Total plate count,"total micro-organism [1]; dose 15% (w/w), week 6",150 cfu/gram
same,Total plate count,"total micro-organism [1]; dose 15% (w/w), week 7",660 cfu/gram
same,Total plate count,"total micro-organism [1]; dose 15% (w/w), week 8",4200 cfu/gram
same,Total plate count,"total micro-organism [1]; dose 15% (w/w), week 9",45000 cfu/gram
same,Yeast Count,"yeast; dose 15% (w/w), week 1",<10 cfu/gram
same,Yeast Count,"yeast; dose 15% (w/w), week 2",<10 cfu/gram
same,Yeast Count,"yeast; dose 15% (w/w), week 3",<10 cfu/gram
same,Yeast Count,"yeast; dose 15% (w/w), week 4",<10 cfu/gram
same,Yeast Count,"yeast; dose 15% (w/w), week 5",20 cfu/gram
same,Yeast Count,"yeast; dose 15% (w/w), week 6",<10 cfu/gram
same,Yeast Count,"yeast; dose 15% (w/w), week 7",<10 cfu/gram
same,Yeast Count,"yeast; dose 15% (w/w), week 8",<10 cfu/gram
same,Yeast Count,"yeast; dose 15% (w/w), week 9",<10 cfu/gram
same,Mould Count,"mould; dose 15% (w/w), week 1",<10 cfu/gram
same,Mould Count,"mould; dose 15% (w/w), week 2",<10 cfu/gram
same,Mould Count,"mould; dose 15% (w/w), week 3",<10 cfu/gram
same,Mould Count,"mould; dose 15% (w/w), week 4",<10 cfu/gram
same,Mould Count,"mould; dose 15% (w/w), week 5",<10 cfu/gram
same,Mould Count,"mould; dose 15% (w/w), week 6",<10 cfu/gram
same,Mould Count,"mould; dose 15% (w/w), week 7",<10 cfu/gram
same,Mould Count,"mould; dose 15% (w/w), week 8",<10 cfu/gram
same,Mould Count,"mould; dose 15% (w/w), week 9",<10 cfu/gram
same,pH,"[2]; dose 15% (w/w), week 1",11.47
same,pH,"[2]; dose 15% (w/w), week 2",7.57
same,pH,"[2]; dose 15% (w/w), week 3",7.88
same,pH,"[2]; dose 15% (w/w), week 4",9.29
same,pH,"[2]; dose 15% (w/w), week 5",6.78
same,pH,"[2]; dose 15% (w/w), week 6",9.27
same,pH,"[2]; dose 15% (w/w), week 7",7.23
same,pH,"[2]; dose 15% (w/w), week 8",9.18
same,pH,"[2]; dose 15% (w/w), week 9",8.93
[Ca+2].[O-]CC(O)CO.[O-]CC(O)CO [Ca-DGO (g)],preservation time with total microbial counts <100 cfu/g,total micro-organism [3],≧4 weeks
same,preservation time with total microbial counts <1000 cfu/g,total micro-organism [3],≧4 weeks
same,preservation time with total microbial counts <100 cfu/g,total micro-organism [1]; [4],≧9 weeks
same,preservation time with total microbial counts <1000 cfu/g,total micro-organism [1]; [4],≧9 weeks
